Results reported in patent US10722514B2 (FLX Bio, Inc., priority 2017, dated 2020).

Target: T1, recombinant full-length USP7 (Homo sapiens, UniProt Q93009)
T1 construct: A 25 μl reaction volume containing recombinant full-length USP7 (62 pM)
Test: USP7-mediated ubiquitin-rhodamine cleavage assay
Assay type: biochemical
Conditions: recombinant full-length USP7 62 pM; ubiquitin-rhodamine 100 nM; 30-minute incubation with compound, 1 hour reaction at room temperature; read-out: Potency: USP7 IC50
Method in brief: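 After compound and enzyme (62 pM) sat together 30 min at RT, 100 nM fluorogenic ubiquitin-rhodamine substrate was added for 1 h protected from light. Acetic acid quenched the reaction prior to the fluorescence read.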

T1 sequence (Q93009 whole entry): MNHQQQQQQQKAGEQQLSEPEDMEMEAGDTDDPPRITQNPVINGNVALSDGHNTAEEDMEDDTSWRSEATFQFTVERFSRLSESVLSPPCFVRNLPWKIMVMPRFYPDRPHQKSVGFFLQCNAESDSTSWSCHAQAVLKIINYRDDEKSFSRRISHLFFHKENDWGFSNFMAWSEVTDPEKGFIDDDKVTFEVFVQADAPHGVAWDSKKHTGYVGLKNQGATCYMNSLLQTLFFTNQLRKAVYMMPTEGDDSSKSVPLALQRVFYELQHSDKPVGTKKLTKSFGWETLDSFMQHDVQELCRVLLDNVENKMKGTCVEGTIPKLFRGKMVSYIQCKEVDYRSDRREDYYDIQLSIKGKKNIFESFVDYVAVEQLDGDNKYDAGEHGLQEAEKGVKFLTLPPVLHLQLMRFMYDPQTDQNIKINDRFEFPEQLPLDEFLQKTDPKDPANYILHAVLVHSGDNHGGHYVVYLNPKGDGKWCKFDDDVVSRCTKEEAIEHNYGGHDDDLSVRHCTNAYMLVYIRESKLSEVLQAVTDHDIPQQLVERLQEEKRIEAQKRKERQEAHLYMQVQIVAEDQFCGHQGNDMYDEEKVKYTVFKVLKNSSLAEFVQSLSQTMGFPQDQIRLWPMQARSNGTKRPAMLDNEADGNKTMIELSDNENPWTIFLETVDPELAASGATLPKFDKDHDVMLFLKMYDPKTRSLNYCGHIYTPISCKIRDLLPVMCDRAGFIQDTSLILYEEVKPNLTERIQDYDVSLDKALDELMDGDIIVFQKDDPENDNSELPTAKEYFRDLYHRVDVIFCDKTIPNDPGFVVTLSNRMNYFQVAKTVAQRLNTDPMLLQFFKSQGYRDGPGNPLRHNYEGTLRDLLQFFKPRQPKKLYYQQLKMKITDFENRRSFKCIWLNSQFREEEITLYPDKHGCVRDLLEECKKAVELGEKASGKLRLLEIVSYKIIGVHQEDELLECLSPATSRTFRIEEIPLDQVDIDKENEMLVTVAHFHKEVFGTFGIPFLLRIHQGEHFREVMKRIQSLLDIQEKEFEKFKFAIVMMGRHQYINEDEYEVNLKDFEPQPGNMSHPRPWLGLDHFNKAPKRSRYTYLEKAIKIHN

IC50 [nM]	Compound
< 1000	CCN1C[C@H](F)[C@H](Oc2c(C)cc(Cl)cc2-c2ccnc3cc(CN4C(=O)C5CC5C4=O)sc23)C1 (stereo partly drawn) [Example 310, 3-[[7-[5-chloro-2-[(3R,4S)-1-ethyl-4-fluoro-pyrrolidin-3-yl]oxy-3-methyl-phenyl]thieno[3,2-b]pyridin-2-yl]methyl]-3-azabicyclo[3.1.0]hexane-2,4-dione]
< 1000	Cc1cc(Cl)cc(-c2ccnc3cc(CN4C(=O)C5C(C4=O)C5(C)C)sc23)c1O[C@@H]1CNC[C@@H]1F (stereo partly drawn) [Example 312, 3-[[7-[5-chloro-2-[(3R,4S)-4-fluoropyrrolidin-3-yl]oxy-3-methyl-phenyl]thieno[3,2-b]pyridin-2-yl]methyl]-6,6-dimethyl-3-azabicyclo[3.1.0]hexane-2,4-dione]
< 1000	Cc1cc(Cl)cc(-c2ccnc3cc(CN4C(=O)C5CC5C4=O)sc23)c1O[C@@H]1CN(C)C[C@@H]1F (stereo partly drawn) [Example 314, 3-[[7-[5-chloro-2-[(3R,4S)-4-fluoro-1-methyl-pyrrolidin-3-yl]oxy-3-methyl-phenyl]thieno[3,2-b]pyridin-2-yl]methyl]-3-azabicyclo[3.1.0]hexane-2,4-dione]
< 1000	CCN1C[C@H]2C[C@@H]1[C@H](Oc1c(C)cc(Cl)cc1-c1ccnc3cc(CN4C(=O)C5CC5C4=O)sc13)C2 (stereo partly drawn) [Example 320, 3-[[7-[5-chloro-2-[[(1S,4R,5R)-3-ethyl-3-azabicyclo[2.2.1]heptan-5-yl]oxy]-3-methyl-phenyl]thieno[3,2-b]pyridin-2-yl]methyl]-3-azabicyclo[3.1.0]hexane-2,4-dione]
< 1000	CCN1C[C@H]2C[C@@H]1[C@H](Oc1c(C)cc(Cl)cc1-c1ccnc3cc(CN4C(=O)CCC4=O)sc13)C2 [Example 321, 1-[[7-[5-chloro-2-[[(1S,4R,5R)-3-ethyl-3-azabicyclo[2.2.1]heptan-5-yl]oxy]-3-methyl-phenyl]thieno[3,2-b]pyridin-2-yl]methyl]pyrrolidine-2,5-dione]
< 1000	Cc1cc(Cl)cc(-c2ccnc3cc(CN4C(=O)CCC4=O)sc23)c1O[C@@H]1CN(C2CCC2)C[C@@H]1F [Example 322, 1-[[7-[5-chloro-2-[(3R,4S)-1-cyclobutyl-4-fluoro-pyrrolidin-3-yl]oxy-3-methyl-phenyl]thieno[3,2-b]pyridin-2-yl]methyl]pyrrolidine-2,5-dione]
< 1000	Cc1cc(Cl)cc(-c2ccnc3cc(CN4C(=O)CCC4=O)sc23)c1O[C@@H]1CN(C(C)C)C[C@@H]1F [Example 323, 1-[[7-[5-chloro-2-[(3R,4S)-4-fluoro-1-isopropyl-pyrrolidin-3-yl]oxy-3-methyl-phenyl]thieno[3,2-b]pyridin-2-yl]methyl]pyrrolidine-2,5-dione]
< 1000	Cc1cc(Cl)cc(-c2ccnc3cc(CN4C(=O)C5CC5C4=O)sc23)c1O[C@@H]1CCNC[C@@H]1C (stereo partly drawn) [Example 324, 3-[[7-[5-chloro-3-methyl-2-[[(3S,4R)-3-methyl-4-piperidyl]oxy]phenyl]thieno[3,2-b]pyridin-2-yl]methyl]-3-azabicyclo[3.1.0]hexane-2,4-dione]
< 1000	CCN1CC[C@@H](Oc2c(C)cc(Cl)cc2-c2ccnc3cc(CN4C(=O)C5CC5C4=O)sc23)[C@@H](C)C1 (stereo partly drawn) [Example 325, 3-[[7-[5-chloro-2-[[(3S,4R)-1-ethyl-3-methyl-4-piperidyl]oxy]-3-methyl-phenyl]thieno[3,2-b]pyridin-2-yl]methyl]-3-azabicyclo[3.1.0]hexane-2,4-dione]
< 1000	Cc1cc(Cl)cc(-c2ccnc3cc(CN4C(=O)C5CC5C4=O)sc23)c1O[C@@H]1CCN(C)C[C@@H]1C (stereo partly drawn) [Example 326, 3-[[7-[5-chloro-2-[[(3S,4R)-1,3-dimethyl-4-piperidyl]oxy]-3-methyl-phenyl]thieno[3,2-b]pyridin-2-yl]methyl]-3-azabicyclo[3.1.0]hexane-2,4-dione]
< 1000	Cc1cc(Cl)cc(-c2ccnc3cc(CN4C(=O)C5CC5C4=O)sc23)c1O[C@@H]1CNC[C@@H]1C (stereo partly drawn) [Example 327, 3-[[7-[5-chloro-3-methyl-2-[(3S,4S)-4-methylpyrrolidin-3-yl]oxy-phenyl]thieno[3,2-b]pyridin-2-yl]methyl]-3-azabicyclo[3.1.0]hexane-2,4-dione]
< 1000	Cc1cc(Cl)cc(-c2ccnc3cc(CN4C(=O)C5C(C4=O)C5(C)C)sc23)c1O[C@@H]1CNC[C@@H]1C (stereo partly drawn) [Example 328, 3-[[7-[5-chloro-3-methyl-2-[(3S,4S)-4-methylpyrrolidin-3-yl]oxy-phenyl]thieno[3,2-b]pyridin-2-yl]methyl]-6,6-dimethyl-3-azabicyclo[3.1.0]hexane-2,4-dione]
< 1000	Cc1cc(Cl)cc(-c2ccnc3cc(Cn4c(=O)ccn(C(C)C)c4=O)sc23)c1O[C@@H]1CNC[C@@H]1C [Example 329, 3-[[7-[5-chloro-3-methyl-2-[(3S,4S)-4-methylpyrrolidin-3-yl]oxy-phenyl]thieno[3,2-b]pyridin-2-yl]methyl]-1-isopropyl-pyrimidine-2,4-dione]
< 1000	Cc1cc(Cl)cc(-c2ccnc3cc(CN4C(=O)C5C(C4=O)C5(C)C)sc23)c1O[C@@H]1C[C@@H]2C[C@H]1N(C)C2 (stereo partly drawn) [Example 333, 3-[[7-[5-chloro-3-methyl-2-[[(1S,4R,5R)-3-methyl-3-azabicyclo[2.2.1]heptan-5-yl]oxy]phenyl]thieno[3,2-b]pyridin-2-yl]methyl]-6,6-dimethyl-3-azabicyclo[3.1.0]hexane-2,4-dione]

The next lines start with the compound.

Compound	IC50 [nM]
Cc1cc(Cl)cc(-c2ccnc3cc(CN4C(=O)OC(C)(C)C4=O)sc23)c1O[C@H]1CCCNC1 [Example 311, 3-[[7-[5-chloro-3-methyl-2-[[(3S)-3-piperidyl]oxy]phenyl]thieno[3,2-b]pyridin-2-yl]methyl]-5,5-dimethyl-oxazolidine-2,4-dione; 2,2,2-trifluoroacetic acid]	< 1000
Cc1cc(Cl)cc(-c2ccnc3cc(CN4C(=O)CC(C)(C)C4=O)sc23)c1O[C@H]1CCCNC1 [Example 313, 1-[[7-[5-chloro-3-methyl-2-[[(3S)-3-piperidyl]oxy]phenyl]thieno[3,2-b]pyridin-2-yl]methyl]-3,3-dimethyl-pyrrolidine-2,5-dione; 2,2,2-trifluoroacetic acid]	< 1000
Cc1cc(Cl)cc(-c2ccnc3cc(CN4C(=O)C5CC5C4=O)sc23)c1O[C@@H]1C[C@H]2CN[C@@H]1C2 (stereo partly drawn) [Example 315, 3-[[7-[2-[[(1S,4R,5R)-3-azabicyclo[2.2.1]heptan-5-yl]oxy]-5-chloro-3-methyl-phenyl]thieno[3,2-b]pyridin-2-yl]methyl]-3-azabicyclo[3.1.0]hexane-2,4-dione]	< 1000
Cc1cc(Cl)cc(-c2ccnc3cc(CN4C(=O)C5C(C4=O)C5(C)C)sc23)c1OC1CN2CCC1CC2 (centres unmarked) [Example 316, 3-[[7-(5-chloro-3-methyl-2-quinuclidin-3-yloxy-phenyl)thieno[3,2-b]pyridin-2-yl]methyl]-6,6-dimethyl-3-azabicyclo[3.1.0]hexane-2,4-dione; 2,2,2-trifluoroacetic acid]	< 1000
Cc1cc(Cl)cc(-c2ccnc3cc(CN4C(=O)CC5(CCC5)C4=O)sc23)c1O[C@H]1CCCNC1 [Example 317, 6-[[7-[5-chloro-3-methyl-2-[[(3S)-3-piperidyl]oxy]phenyl]thieno[3,2-b]pyridin-2-yl]methyl]-6-azaspiro[3.4]octane-5,7-dione; 2,2,2-trifluoroacetic acid]	< 1000
Cc1cc(Cl)cc(-c2ccnc3cc(CN4C(=O)CCC4=O)sc23)c1OC1CN2CCC1CC2 (centres unmarked) [Example 318, 1-[[7-(5-chloro-3-methyl-2-quinuclidin-3-yloxy-phenyl)thieno[3,2-b]pyridin-2-yl]methyl]pyrrolidine-2,5-dione; 2,2,2-trifluoroacetic acid]	< 1000
Cc1cc(Cl)cc(-c2ccnc3cc(CN4C(=O)C5CC5C4=O)sc23)c1OC1CN2CCC1CC2 (centres unmarked) [Example 319, 3-[[7-(5-chloro-3-methyl-2-quinuclidin-3-yloxy-phenyl)thieno[3,2-b]pyridin-2-yl]methyl]-3-azabicyclo[3.1.0]hexane-2,4-dione; 2,2,2-trifluoroacetic acid]	< 1000
Cc1cc(Cl)cc(-c2ccnc3cc(CN4C(=O)COC4=O)sc23)c1O[C@H]1CCCNC1 [Example 330, 3-[[7-[5-chloro-3-methyl-2-[[(3S)-3-piperidyl]oxy]phenyl]thieno[3,2-b]pyridin-2-yl]methyl]oxazolidine-2,4-dione; 2,2,2-trifluoroacetic acid]	< 1000
Cc1cc(Cl)cc(-c2ccnc3cc(CN4C(=O)C5C(C4=O)C5(C)C)sc23)c1O[C@@H]1C[C@H]2CN[C@@H]1C2 (stereo partly drawn) [Example 331, 3-[[7-[2-[[(1S,4R,5R)-3-azabicyclo[2.2.1]heptan-5-yl]oxy]-5-chloro-3-methyl-phenyl]thieno[3,2-b]pyridin-2-yl]methyl]-6,6-dimethyl-3-azabicyclo[3.1.0]hexane-2,4-dione]	< 1000
CCN1C[C@H]2C[C@@H]1[C@H](Oc1c(C)cc(Cl)cc1-c1ccnc3cc(CN4C(=O)C5C(C4=O)C5(C)C)sc13)C2 (stereo partly drawn) [Example 332, 3-[[7-[5-chloro-2-[[(1S,4R,5R)-3-ethyl-3-azabicyclo[2.2.1]heptan-5-yl]oxy]-3-methyl-phenyl]thieno[3,2-b]pyridin-2-yl]methyl]-6,6-dimethyl-3-azabicyclo[3.1.0]hexane-2,4-dione]	< 1000
Cc1cc(Cl)cc(-c2ccnc3cc(CN4C(=O)c5cccnc5C4=O)sc23)c1O[C@H]1CCCNC1 [Example 334, 6-[[7-[5-chloro-3-methyl-2-[[(3S)-3-piperidyl]oxy]phenyl]thieno[3,2-b]pyridin-2-yl]methyl]pyrrolo[3,4-b]pyridine-5,7-dione; 2,2,2-trifluoroacetic acid]	< 1000
Cc1cc(Cl)cc(-c2ccnc3cc(CN4C(=O)c5ccncc5C4=O)sc23)c1O[C@H]1CCCNC1 [Example 335, 2-[[7-[5-chloro-3-methyl-2-[[(3S)-3-piperidyl]oxy]phenyl]thieno[3,2-b]pyridin-2-yl]methyl]pyrrolo[3,4-c]pyridine-1,3-dione; 2,2,2-trifluoroacetic acid]	< 1000
